Experimental data: patent US7700624B2, “3-aminocyclopentanecrboxamides as modulators of chemokine receptors” (Incyte Corporation, priority 2005, dated 2010)

Biological target: T1, CCR2 (Homo sapiens, UniProt P41597)
T1 construct: Peripheral Blood Mononuclear Cells (PBMCs) prepared from normal human whole blood via density gradient centrifugation; endogenous in cells; host or cells: human PBMCs from normal whole blood
T1 sequence (P41597 1-360 isoform P41597-2): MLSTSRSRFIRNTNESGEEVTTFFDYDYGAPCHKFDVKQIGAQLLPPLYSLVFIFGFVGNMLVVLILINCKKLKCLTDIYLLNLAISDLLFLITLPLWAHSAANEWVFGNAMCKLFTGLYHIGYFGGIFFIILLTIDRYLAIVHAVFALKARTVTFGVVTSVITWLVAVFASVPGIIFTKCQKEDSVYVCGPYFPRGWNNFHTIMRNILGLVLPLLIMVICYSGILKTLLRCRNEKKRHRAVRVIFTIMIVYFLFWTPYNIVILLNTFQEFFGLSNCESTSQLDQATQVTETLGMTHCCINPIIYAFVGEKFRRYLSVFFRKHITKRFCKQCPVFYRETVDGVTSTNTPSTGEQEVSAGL
Experiment: CCR2 binding assay: 125I-labeled MCP-1 binding to human PBMCs
Settings: inhibition of specific binding of 0.1 to 0.2 nM 125I-labeled MCP-1 to human PBMCs, 30 min at room temperature
Source text: The CCR2 antagonist activity of compounds of the invention can be reported as the inhibitor concentration required for 50% inhibition (IC50 values) of specific binding in receptor binding assays using ^125I-labeled MCP-1, as ligand, and Peripheral Blood Mononuclear Cells (PBMCs) prepared from normal human whole blood via density gradient centrifugation. Specific binding is preferably defined as the total binding (e.g., total cpm on filters) minus the non-specific binding. Non-specific binding is defined as the amount of cpm still detected in the presence of excess unlabeled competitor (e.g., MCP-1).
Human PBMCs are used to test compounds of the invention in a binding assay. For example, 200,000 to 500,000 cells are incubated with 0.1 to 0.2 nM ^125I-labeled MCP-1, with or without unlabeled competitor (10 nM MCP-1) or various concentrations of compounds to be tested. ^125I-labeled MCP-1, are prepared by suitable methods or purchased from commercial vendors (Perkin Elmer, Boston Mass.). The binding reactions are performed in 50 to 250 μL of a binding buffer consisting of […] pH 7.2, and 0.1% BSA (bovine serum albumin), for 30 min at room temperature. The binding reactions are terminated by harvesting the membranes by rapid filtration through glass fiber filters (Perkin Elmer) which is presoaked in 0.3% polyethyleneimine or Phosphate Buffered Saline (PBS). The filters were rinsed with approximately 600 μL of binding buffer containing 0.5 M NaCl or PBS, then dried, and the amount of bound radioactivity is determined by counting on a Gamma Counter (Perkin Elmer).

| SMILES | IC50 |
| --- | --- |
| CC(C)[C@]1(C(=O)N2CCN(c3cc(C(F)(F)F)ccn3)CC2)CC[C@@H](NC2CCc3cc(F)cc(F)c3C2)C1 (mixture of isomers) [Example 18, 6,8-difluoro-N-[(1R,3S)-3-isopropyl-3-({4-[4-(trifluoromethyl)pyridin-2-yl]piperazin-1-yl}carbonyl)cyclopentyl]-1234-tetrahydronaphthalen-2-amine] | 51.7 nM |
| CC(C)[C@]1(C(=O)N2CCN(c3cc(C(F)(F)F)ccn3)CC2)CC[C@@H](NC2CCS(=O)(=O)CC2)C1 [Example 15, N-[(1R-3S)-3-isopropyl-3-({4-[4-(trifluoromethyl)pyridin-2-yl]piperazin-1-yl}carbonyl)cyclopentyl]tetrahydro-2H-thiopyran-4-amine 11-dioxide] | 541 nM |
| CC(C)[C@]1(C(=O)N2CCN(c3cc(C(F)(F)F)ccn3)CC2)CC[C@@H](NCc2ccc(F)cc2)C1 [Example 28, (1R,3S)-N-(4-fluorobenzyl)-3-isopropyl-3-({4-[4-(trifluoromethyl)pyridin-2-yl]piperazin-1-yl}carbonyl)cyclopentanamine] | 389 nM |
| COc1ccc(CN[C@@H]2CC[C@@](C(=O)N3CCN(c4cc(C(F)(F)F)ccn4)CC3)(C(C)C)C2)cc1OC [Example 25, (1R,3S)-N-(34-dimethoxybenzyl)-3-isopropyl-3-({4-[4-(trifluoromethyl)pyridin-2-yl]piperazin-1-yl}carbonyl)cyclopentanamine] | 500 nM |
| CC(C)[C@]1(C(=O)N2CCN(c3cc(C(F)(F)F)ccn3)CC2)CC[C@@H](NCc2ccc3[nH]ccc3c2)C1 [Example 26, (1R,3S)-N-(1H-indol-5-ylmethyl)-3-isopropyl-3-({4-[4-(trifluoromethyl)pyridin-2-yl]piperazin-1-yl}carbonyl)cyclopentanamine] | 273 nM |
| CCn1cc(CN[C@@H]2CC[C@@](C(=O)N3CCN(c4cc(C(F)(F)F)ccn4)CC3)(C(C)C)C2)cn1 [Example 7, (1R,3S)-N-[(1-ethyl-1H-pyrazol-4-yl)methyl]-3-isopropyl-3-({4-[4-(trifluoromethyl)pyridin-2-yl]piperazin-1-yl}carbonyl)cyclopentanamine] | 617 nM |
| COc1ccc(CN[C@@H]2CC[C@@](C(=O)N3CCN(c4cc(C(F)(F)F)ccn4)CC3)(C(C)C)C2)cc1O [Example 29, 5-({[(1R,3S)-3-isopropyl-3-({4-[4-(trifluoromethyl)pyridin-2-yl]piperazin-1-yl}carbonyl)cyclopentyl]amino}methyl)-2-methoxyphenol] | 736 nM |
| CC1OCCC1N[C@@H]1CC[C@@](C(=O)N2CCN(c3cc(C(F)(F)F)ccn3)CC2)(C(C)C)C1 (stereo partly drawn) [Example 20, 2,5-anhydro-1,3,4-trideoxy-3-{[(1R,3S)-3-isopropyl-3-({4-[4-(trifluoromethyl)pyridin-2-yl]piperazin-1-yl}carbonyl)cyclopentyl]amino}pentitol] | 80.6 nM |
| CC#CCN1CCC(N[C@@H]2CC[C@@](C(=O)N3CCN(c4cc(C(F)(F)F)ccn4)CC3)(C(C)C)C2)CCC1=O (mixture of isomers) [Example 12, 1-but-2-yn-1-yl-5-{[(1R,3S)-3-isopropyl-3-({4-[4-(trifluoromethyl)pyridin-2-yl]piperazin-1-yl}carbonyl)cyclopentyl]amino}azepan-2-one] | 660 nM |
| CC(C)[C@]1(C(=O)N2CCN(c3cc(C(F)(F)F)ccn3)CC2)CC[C@@H](NCc2ccc3c(c2)OCC(=O)N3)C1 [Example 30, 6-({[(1R,3S)-3-isopropyl-3-({4-[4-(trifluoromethyl)pyridin-2-yl]piperazin-1-yl}carbonyl)cyclopentyl]amino}methyl)-2H-14-benzoxazin-3(4H)-one] | 364 nM |
| CC(C)[C@]1(C(=O)N2CCN(c3cc(C(F)(F)F)ccn3)CC2)CC[C@@H](NC2CCC(O)(c3ccc(-c4ncccn4)cn3)CC2)C1 (some centres unmarked) [Example 1, 4-{[(1R3S)-3-isopropyl-3-({4-[4-(trifluoromethyl)pyridin-2-yl]piperazin-1-yl}carbonyl)cyclopentyl]amino}-1-(5-pyrimidin-2-ylpyridin-2-yl)cyclohexanol] | 19.8 nM |
| CC(C)[C@]1(C(=O)N2CCN(c3cc(C(F)(F)F)ccn3)CC2)CC[C@@H](NCc2ccc(O)cc2)C1 [Example 27, 4-({[(1R,3S)-3-isopropyl-3-({4-[4-(trifluoromethyl)pyridin-2-yl]piperazin-1-yl}carbonyl)cyclopentyl]amino}methyl)phenol] | 470 nM |
| CC(C)[C@]1(C(=O)N2CCN(c3cc(C(F)(F)F)ccn3)CC2)CC[C@@H](NC2CCCC2)C1 [Example 16, (1R,3S)-N-cyclopentyl-3-isopropyl-3-({4-[4-(trifluoromethyl)pyridin-2-yl]piperazin-1-yl}carbonyl)cyclopentanamine] | 227 nM |
| COc1ccc(CN[C@@H]2CC[C@@](C(=O)N3CCN(c4cc(C(F)(F)F)ccn4)CC3)(C(C)C)C2)c(OC)c1 [Example 10, (1R,3S)-N-(24-dimethoxybenzyl)-3-isopropyl-3-({4-[4-(trifluoromethyl)pyridin-2-yl]piperazin-1-yl}carbonyl)cyclopentanamine] | 519 nM |
| CC1COCC(C)C1N[C@@H]1CC[C@@](C(=O)N2CCN(c3cc(C(F)(F)F)ccn3)CC2)(C(C)C)C1 (stereo partly drawn) [Example 21, N-[(1R,3S)-3-isopropyl-3-({4-[4-(trifluoromethyl)pyridin-2-yl]piperazin-1-yl}carbonyl)cyclopentyl]-35-dimethyltetrahydro-2H-pyran-4-amine] | 10.1 nM |
| CC(C)[C@]1(C(=O)N2CCN(c3cc(C(F)(F)F)ccn3)CC2)CC[C@@H](NC2CCCN(c3ncccn3)C2)C1 (mixture of isomers) [Example 11, N-[(1R,3S)-3-isopropyl-3-({4-[4-(trifluoromethyl)pyridin-2-yl]piperazin-1-yl}carbonyl)cyclopentyl]-1-pyrimidin-2-ylpiperidin-3-amine] | 420 nM |
| CC(C)[C@]1(C(=O)N2CCN(c3cc(C(F)(F)F)ccn3)CC2)CC[C@@H](NC2CCOC2)C1 (mixture of isomers) [Example 23, N-[(1R-3S)-3-isopropyl-3-({4-[4-(trifluoromethyl)pyridin-2-yl]piperazin-1-yl}carbonyl)cyclopentyl]tetrahydrofuran-3-amine] | 157 nM |
| CC(C)[C@]1(C(=O)N2CCN(c3cc(C(F)(F)F)ccn3)CC2)CC[C@@H](NCc2cnc3c(c2)NC(=O)CO3)C1 [Example 9, 7-({[(1R,3S)-3-isopropyl-3-({4-[4-(trifluoromethyl)pyridin-2-yl]piperazin-1-yl}carbonyl)cyclopentyl]amino}methyl)-1H-pyrido[23-b][14]oxazin-2(3H)-one] | 338 nM |
| CC(C)[C@]1(C(=O)N2CCN(c3cc(C(F)(F)F)ccn3)CC2)CC[C@@H](NC2CCc3ccccc3C2)C1 (mixture of isomers) [Example 19, N-[(1R,3S)-3-isopropyl-3-({4-[4-(trifluoromethyl)pyridin-2-yl]piperazin-1-yl}carbonyl)cyclopentyl]-1234-tetrahydronaphthalen-2-amine] | 138 nM |
| CC(C)[C@]1(C(=O)N2CCN(c3cc(C(F)(F)F)ccn3)CC2)CC[C@@H](NCc2ccc(Cl)s2)C1 [Example 5, (1R,3S)-N-[(5-chloro-2-thienyl)methyl]-3-isopropyl-3-({4-[4-(trifluoromethyl)pyridin-2-yl]piperazin-1-yl}carbonyl)cyclopentanamine] | 616 nM |
| CC(CCn1cccn1)N[C@@H]1CC[C@@](C(=O)N2CCN(c3cc(C(F)(F)F)ccn3)CC2)(C(C)C)C1 (mixture of isomers) [Example 22, (1R,3S)-3-isopropyl-N-[1-methyl-3-(1H-pyrazol-1-yl)propyl]-3-({4-[4-(trifluoromethyl)pyridin-2-yl]piperazin-1-yl}carbonyl)cyclopentanamine] | 504 nM |
| CC(C)NC(=O)CCC1CCCC1N[C@@H]1CC[C@@](C(=O)N2CCN(c3cc(C(F)(F)F)ccn3)CC2)(C(C)C)C1 (stereo partly drawn) [Example 13, N-isopropyl-3-(2-{[(1R,3S)-3-isopropyl-3-({4-[4-(trifluoromethyl)pyridin-2-yl]piperazin-1-yl}carbonyl)cyclopentyl]amino}cyclopentyl)propanamide] | 273 nM |
| CC(C)[C@]1(C(=O)N2CCN(c3cc(C(F)(F)F)ccn3)CC2)CC[C@@H](NC2Cc3ccccc3C2)C1 [Example 14, N-[(1R,3S)-3-isopropyl-3-({4-[4-(trifluoromethyl)pyridin-2-yl]piperazin-1-yl}carbonyl)cyclopentyl]indan-2-amine] | 74.8 nM |
